Laboratory results reported in patent US20210163404A1, “NOVEL UREA COMPOUNDS AND BIOISOSTERES THEREOF AND THEIR USE FOR TREATING INFLAMMATION AND INFLAMMATION-RELATED PATHOLOGIES” (UNIVERSITÉ LAVAL, priority 2017, published 2021).
Several values for one entry are separate records, joined by “and”; a condition that tells them apart may be missing. Equal entries are not always repeated.

How the values were obtained:
[1] = tested on: HDFn neonatal dermal fibroblast cell line; assay: Antiproliferative activity (NCI procedure, sulforhodamine B), HDFn; assay type: cell-based, human; settings: Homo sapiens, Fibroblast, unit inferred, tested 781 nM to 100 μM, 48 h
Procedure: (§1) The antiproliferative activity of compounds 3a-b, 4a-e, 5a-e and 6a-e was subsequently evaluated using the human HT-29 colon adenocarcinoma and the A549 adenocarcinoma alveolar epithelial cancer cell lines, the HaCaT spontaneously transformed aneuploid immortal keratinocyte cell line and the HDFn neonatal dermal fibroblast cell line (Table 2). Cell growth inhibition was assessed according to the NCI/NIH Developmental Therapeutics Program.
(§2) The antiproliferative activity assay of all compounds was assessed using the procedure recommended by the National Cancer Institute for its drug screening program with minor modifications. Briefly, 96-well microtiter plates were seeded with 75 μL of a suspension of either HaCaT (5×10^3), HT-29 (3.0×10^3), A549 (3.0×10^3) or HDFn (3×10^3) cells per well in DMEM and incubated for 24 h at 37° C. in a moisture-saturated atmosphere containing 5% CO2. Compounds freshly solubilized in DMSO (40 mM) were diluted in fresh DMEM, and 75 μL aliquots containing serially diluted concentrations of the compound were added. Final compound concentrations ranged from 100 μM to 781 nM. DMSO was maintained at a concentration of <0.5% (v/v) to avoid any related cytotoxicity. Plates were subsequently incubated for 48 h. Cell growth was then stopped by the addition of cold trichloroacetic acid to the wells (10% w/v, final concentration), followed by a 1 h incubation period at 4° C. The plates were washed 4-times with water. A sulforhodamine B solution (75 μL; 0.1% w/v) in acetic acid (1%) was subsequently added to each well and the plates incubated over a 15 min period while at room temperature. After staining, any unbound dye was removed by washing 4-times with an acetic acid solution (1%). Bound dye was solubilized in 20 mM Tris base and the absorbance was measured at an optimal wavelength (530-568 nm) using a μQuant® Universal microplate spectrophotometer (BioTek, Winooski, Vt.). The measurements for treated cells were compared with measurements from control cell plates fixed on treatment day and the percentage of cell growth inhibition was calculated for each drug. The experiments were performed at least twice in triplicate. The assays were considered valid when the coefficient of variation for a given set of conditions and within the same experiment was <10%.

[2] = tested on: HaCaT keratinocyte cell line; assay: Antiproliferative activity (NCI procedure, sulforhodamine B), HaCaT; assay type: cell-based, human; settings: Homo sapiens, HaCaT, unit inferred, tested 781 nM to 100 μM, 48 h
Procedure: as §1, §2

[3] = tested on: HT-29 colon adenocarcinoma cells; assay: Antiproliferative activity (NCI procedure, sulforhodamine B), HT-29; assay type: cell-based, human; settings: Homo sapiens, HT-29, unit inferred, tested 781 nM to 100 μM, 48 h
Procedure: as §1, §2

[4] = tested on: A549 adenocarcinoma alveolar epithelial cancer cells; assay: Antiproliferative activity (NCI procedure, sulforhodamine B), A549; assay type: cell-based, human; settings: Homo sapiens, A549, unit inferred, tested 781 nM to 100 μM, 48 h
Procedure: as §1, §2

SMILES	melting point	IC50 ([1]; Table 7) [µM]	IC50 ([2]; Table 7) [µM]	IC50 ([3]; Table 7) [µM]	IC50 ([4]; Table 7) [µM]	further results
CC(C)(C)c1cccc(NC(=O)NC2CCC2)c1 [Compound 46, 1-(3-(t-Butyl)phenyl)-3-cyclobutylurea]	165 to 166 °C					
O=C(NCC1CC1)Nc1ccc(C2CCCCC2)cc1 [Compound 55, 1-(4-Cyclohexylphenyl)-3-(cyclopropylmethyl)urea]	178 to 181 °C					
CC(C)NC(=O)Nc1ccc(I)cc1 [Compound 1]						IC50 ([1]; Table 5): 83.6 µM; IC50 ([2]; Table 5): 91.9 µM; IC50 ([3]; Table 5): 54.8 µM; IC50 ([4]; Table 5): 81.9 µM
O=c1c(Nc2cccc(I)c2)c(NC2CC2)c1=O [Compound 73]		19.6	37.7	39.8	26.8	
CC(C)(C)c1cccc(Nc2c(NCC3CCC3)c(=O)c2=O)c1 [Compound 86]		3.8	56.1	14.8	13.7	
O=c1c(Nc2cccc(C3CCCCC3)c2)c(NC2CC2)c1=O [Compound 79]		4.3	11	7.9	8	
CCC(CC)NC(=O)Nc1ccc(I)cc1 [Compound 64, 1-(4-Iodophenyl)-3-(pentan-3-yl)urea]	174 to 176 °C					
COCCNC(=O)Nc1ccc(C(C)(C)C)cc1 [Compound 33, 1-(4-(t-Butyl)phenyl)-3-(2-methoxyethyl)urea]	122 to 124 °C					
O=C(Nc1ccc(C2CCCCC2)cc1)NC1CC=CC1 [Compound 60, 1-(4-Cyclohexylphenyl)-3-(cyclopent-3-en-1-yl)urea]	167 to 169 °C					
COCCNC(=O)Nc1cccc(C(C)(C)C)c1 [Compound 52, 1-(3-(t-Butyl)phenyl)-3-(2-methoxyethyl)urea]	119 to 120 °C					
CC(C)(C)c1cccc(Nc2c(NC3CC3)c(=O)c2=O)c1 [Compound 85]		57.3	81.4	64.1	40.8	
CC(C)(C)c1ccc(NC(=O)NCC2CC2)cc1 [Compound 28, 1-(4-(t-Butyl)phenyl)-3-(cyclopropylmethyl)urea]	168 to 170 °C					
O=c1c(Nc2ccc(I)cc2)c(NC2CCCC2)c1=O [Compound 72]		6.9	10.6	10	8	
O=C(NCC1CC1)Nc1ccc(I)cc1 [Compound 21, 1-(Cyclopropylmethyl)-3-(4-iodophenyl)urea]	192 to 194 °C					
CC(C)(C)CNC(=O)Nc1cccc(I)c1 [Compound 43, 1-(3-Iodophenyl)-3-neopentylurea]	114 to 115 °C					
O=C(Nc1cccc(I)c1)NC1CC=CC1 [Compound 41, 1-(Cyclopent-3-en-1-yl)-3-(3-iodophenyl)urea]	151 to 153 °C					
CC(C)(C)CNC(=O)Nc1ccc(C(C)(C)C)cc1 [Compound 65, 1-(4-(t-Butyl)phenyl)-3-neopentylurea]	185 to 187 °C					
O=c1c(NCC2CCC2)c(Nc2ccc(C3CCCCC3)cc2)c1=O [Compound 77]		> 100	> 100	> 100	89.6	
O=c1c(Nc2ccc(C3CCCCC3)cc2)c(NC2CC2)c1=O [Compound 76]		> 100	> 100	> 100	74	
O=c1c(Nc2ccc(I)cc2)c(NC2CC2)c1=O [Compound 70]		> 100	> 100	> 100	> 100	
CC(C)(C)c1ccc(NC(=O)NC2CCC2)cc1 [Compound 29, 1-(4-(t-Butyl)phenyl)-3-cyclobutylurea]	189 to 190 °C					
CC(C)(C)c1ccc(Nc2c(NCC3CCC3)c(=O)c2=O)cc1 [Compound 83]		> 100	> 100	> 100	> 100	
O=C(NCC1CCCC1)Nc1ccc(I)cc1 [Compound 25, 1-(Cyclopentylmethyl)-3-(4-iodophenyl)urea]	158 to 161 °C and 158 to 162 °C					

SMILES	melting point	IC50 ([1]; Table 7) [µM]	IC50 ([2]; Table 7) [µM]	IC50 ([3]; Table 7) [µM]	IC50 ([4]; Table 7) [µM]	further results
O=c1c(NCC2CCC2)c(Nc2cccc(I)c2)c1=O [Compound 74]		4.1	10.9	15	8.3	
O=c1c(Nc2cccc(C3CCCCC3)c2)c(NC2CCCC2)c1=O [Compound 81]		1.9	5.6	4.3	3.7	
O=c1c(NCC2CCC2)c(Nc2cccc(C3CCCCC3)c2)c1=O [Compound 80]		1.9	6	4.5	4.2	
O=C(Nc1ccc(I)cc1)NC1CC=CC1 [Compound 35, 1-(Cyclopent-3-en-1-yl)-3-(4-iodophenyl)urea]	201 to 202 °C					
CCC(CC)NC(=O)Nc1ccc(C(C)(C)C)cc1 [Compound 34, 1-(4-(t-Butyl)phenyl)-3-(pentan-3-yl)urea]	119 to 121 °C					
CC(C)(C)c1cccc(NC(=O)NC2CC=CC2)c1 [Compound 50, 1-(3-(t-Butyl)phenyl)-3-(cyclopent-3-en-1-yl)urea]	135 to 137 °C					
CCNC(=S)Nc1cccc(C2CCCCC2)c1 [Compound 104]						IC50 ([1]; Table 8): 12.9 µM; IC50 ([2]; Table 8): 19.3 µM; IC50 ([3]; Table 8): 17.9 µM; IC50 ([4]; Table 8): 22.4 µM
CC(C)(C)c1ccc(Nc2c(NC3CCCC3)c(=O)c2=O)cc1 [Compound 84]		> 100	> 100	> 100	15.1	
CC(C)(C)CNC(=O)Nc1cccc(C(C)(C)C)c1 [Compound 51, 1-(3-(t-Butyl)phenyl)-3-neopentylurea]	145 to 147 °C					
CC(C)(C)c1ccc(Nc2c(NC3CC3)c(=O)c2=O)cc1 [Compound 82]		13.2	47.9	18.7	17.9	
O=C(NCC1CC1)Nc1cccc(I)c1 [Compound 37, 1-(Cyclopropylmethyl)-3-(3-iodophenyl)urea]	139 to 140 °C					
O=c1c(Nc2cccc(I)c2)c(NC2CCCC2)c1=O [Compound 75]		4.6	11.8	15.2	9	
CC(C)(C)c1cccc(Nc2c(NC3CCCC3)c(=O)c2=O)c1 [Compound 87]		2.8	5.5	4.3	4	
O=C(NCC1CCCC1)Nc1ccc(C2CCCCC2)cc1 [Compound 59]	142 to 144 °C					
COCCNC(=O)Nc1cccc(I)c1 [Compound 42, 1-(3-Iodophenyl)-3-(2-methoxyethyl)urea]	99 to 101 °C					
O=C(Nc1ccc(I)cc1)NC1CCC1 [Compound 22, 1-Cyclobutyl-3-(4-iodophenyl)urea]	208 to 210 °C					
O=c1c(Nc2ccc(C3CCCCC3)cc2)c(NC2CCCC2)c1=O [Compound 78]		> 100	> 100	> 100	96.1	
CC(C)(C)c1cccc(NC(=O)NCC2CC2)c1 [Compound 45, 1-(3-(t-Butyl)phenyl)-3-(cyclopropylmethyl)urea]	165 to 166 °C					
CCC(CC)NC(=O)Nc1ccc(C2CCCCC2)cc1 [Compound 62, 1-(4-Cyclohexylphenyl)-3-(pentan-3-yl)urea]	174 to 176 °C					
CCC(CC)NC(=O)Nc1cccc(C(C)(C)C)c1 [Compound 53, 1-(3-(t-Butyl)phenyl)-3-(pentan-3-yl)urea]	159 to 161 °C					
O=c1c(NCC2CCC2)c(Nc2ccc(I)cc2)c1=O [Compound 71]		> 100	> 100	> 100	> 100	
O=C(Nc1cccc(I)c1)NC1CCC1 [Compound 38, 1-Cyclobutyl-3-(3-iodophenyl)urea]	178 to 180 °C					
